Assay results from US20040082667A1, “Hangover treatment” (priority 2002, published 2004).

Legend:
[1] = tested on: alcohol induced hangover; experiment: focus group: treating an alcohol induced hangover; type: in vivo, human; conditions: eight subjects (four male, four female); approximately 0.06 ounces powder in approximately 8 ounces of water or juice, oral, morning after an average of 9.5 alcoholic drinks; self-reported by each subject
Method: Each subject consumed an average of 9.5 alcoholic drinks in an average time period of 4.1 hours over the course of one evening. Each subject reported that they experienced the effects of an alcohol induced hangover the following morning. Upon rising, the subjects each ingested approximately 0.06 ounces of methylsulfonylmethane powder which had been mixed with approximately 8 ounces of water or juice. Each subject attested to the fact the effects of their alcohol induced hangover were relieved within less than one hour after ingesting the methylsulfonylmethane compound.

[2] = fraction of the toxicity of common table salt; general statement, no test described; cited from earlier work

CS(C)(=O)=O [methylsulfonylmethane]
time until effects of alcohol induced hangover were relieved after ingesting [1]: less than one
toxicity level relative to common table salt [2]: 1/7
